Reference: ChEMBL document CHEMBL1149209, “Synthesis and structure-activity relationship of 2-(aminoalkyl)-3,3a,8,12b-tetrahydro-2H-dibenzocyclohepta[1,2-b]furan derivatives: a novel series of 5-HT(2A/2C) receptor antagonists” (Bioorg Med Chem Lett, 2004)
pKi: −log10 of the molar value.

Experiments:
Histamine H1 receptor = Histamine H1 receptor (Homo sapiens, UniProt P35367); assay: Ability to displace [3H]pyrilamine from human cloned histamine H1 receptor expressed in CHO cells; format: cell-based
Histamine H1 receptor, sequence (P35367 whole entry): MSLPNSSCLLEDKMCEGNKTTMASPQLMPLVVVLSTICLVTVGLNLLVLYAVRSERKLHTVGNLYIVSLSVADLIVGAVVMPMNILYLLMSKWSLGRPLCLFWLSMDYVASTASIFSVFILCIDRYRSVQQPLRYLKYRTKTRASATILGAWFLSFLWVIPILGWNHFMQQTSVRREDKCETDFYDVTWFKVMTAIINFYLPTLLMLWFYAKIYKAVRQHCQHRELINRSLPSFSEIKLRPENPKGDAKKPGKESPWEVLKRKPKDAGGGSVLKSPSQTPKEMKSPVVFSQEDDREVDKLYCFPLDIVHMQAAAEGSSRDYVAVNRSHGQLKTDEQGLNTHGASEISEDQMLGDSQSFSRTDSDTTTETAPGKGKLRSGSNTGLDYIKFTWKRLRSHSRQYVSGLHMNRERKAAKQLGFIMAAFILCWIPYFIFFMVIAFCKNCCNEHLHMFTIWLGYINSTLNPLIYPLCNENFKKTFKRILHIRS

[1] = molecular target: T1, 5-hydroxytryptamine receptor 2C (Homo sapiens, UniProt P28335); assay: Ability to displace [3H]- mesulergine from human cloned 5-hydroxytryptamine 2C receptor expressed in CHO cells; format: cell-based
T1 sequence (P28335 whole entry): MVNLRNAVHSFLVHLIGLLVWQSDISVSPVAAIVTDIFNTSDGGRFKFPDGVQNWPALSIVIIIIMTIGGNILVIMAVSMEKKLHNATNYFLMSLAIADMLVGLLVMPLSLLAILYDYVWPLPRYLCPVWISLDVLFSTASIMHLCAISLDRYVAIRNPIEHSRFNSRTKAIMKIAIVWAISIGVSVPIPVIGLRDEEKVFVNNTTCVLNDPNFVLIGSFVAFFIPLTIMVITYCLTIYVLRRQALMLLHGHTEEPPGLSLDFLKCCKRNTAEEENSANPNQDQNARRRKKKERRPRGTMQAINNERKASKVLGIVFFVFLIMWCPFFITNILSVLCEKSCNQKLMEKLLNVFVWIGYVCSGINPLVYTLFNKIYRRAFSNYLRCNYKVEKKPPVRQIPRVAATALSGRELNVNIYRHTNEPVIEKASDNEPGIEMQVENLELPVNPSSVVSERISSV

[2] = molecular target: 5-hydroxytryptamine receptor 2A (Homo sapiens, UniProt P28223); assay: Ability to displace [125I]R91150 from human cloned 5-hydroxytryptamine 2A receptor expressed in L929 cells; format: cell-based
5-hydroxytryptamine receptor 2A, sequence (P28223 whole entry): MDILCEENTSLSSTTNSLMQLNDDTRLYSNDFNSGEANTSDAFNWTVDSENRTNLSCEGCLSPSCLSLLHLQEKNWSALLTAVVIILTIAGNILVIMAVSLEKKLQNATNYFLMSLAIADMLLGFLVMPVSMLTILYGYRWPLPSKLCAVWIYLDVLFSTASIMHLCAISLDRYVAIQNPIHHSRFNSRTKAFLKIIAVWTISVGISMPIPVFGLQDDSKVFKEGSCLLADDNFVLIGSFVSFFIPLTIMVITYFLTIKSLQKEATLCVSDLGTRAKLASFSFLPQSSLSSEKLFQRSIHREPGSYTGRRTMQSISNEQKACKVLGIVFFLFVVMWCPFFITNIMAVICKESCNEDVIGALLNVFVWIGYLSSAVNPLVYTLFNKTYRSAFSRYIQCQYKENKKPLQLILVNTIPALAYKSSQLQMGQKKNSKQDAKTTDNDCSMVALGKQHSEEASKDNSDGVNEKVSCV

Rattus norvegicus = assay: Effective dose required for antagonistic activity in mCPP challenge test in male wistar rats after subcutaneous administration; format: functional; settings: sc

What does the source list for `c1ccc(C2CCN(CC3C[C@@H]4c5ccccc5Cc5ccccc5[C@H]4O3)CC2)cc1` (stereo partly specified)?
pKi (Histamine H1 receptor): 7.53; pKi [1]: 7.37; pKi [2]: 5.96

What does the source list for `CN(C)C[C@H]1C[C@@H]2c3ccccc3Cc3ccccc3[C@H]2O1`?
ED50 (Rattus norvegicus): 0.04 mg/kg; pKi (Histamine H1 receptor): 9.27; pKi [1]: 9.03; pKi [2]: 8.60

How did the pKi (Histamine H1 receptor) turn out when `CN1CCN(CC2C[C@@H]3c4ccccc4Cc4ccccc4[C@H]3O2)CC1` (stereo partly specified) was run?
Its pKi is 8.52.

And the pKi [1]?
Its pKi is 6.17.

What about the pKi [2] of the same molecule?
Its pKi is 6.36.

What does the source list for `CNC[C@@H]1CC2c3ccccc3Cc3ccccc3C2O1` (single isomer, unassigned)?
ED50 (Rattus norvegicus): 2.2 mg/kg; pKi (Histamine H1 receptor): 8.46; pKi [1]: 7.80; pKi [2]: 7.13

`CNCC1C[C@@H]2c3ccccc3Cc3ccccc3[C@H]2O1` (stereo partly specified) was tested. Which pKi (Histamine H1 receptor) did it give?
The pKi was 8.03.

And the pKi [1]?
The pKi was 8.01.

And the pKi [2]?
The pKi was 7.31.

With `CN(C)C[C@@H]1C[C@@H]2c3ccccc3Cc3ccccc3N2O1` as the molecule, how does the ED50 (Rattus norvegicus) read?
Its ED50 is 0.04 mg/kg.

What about the pKi (Histamine H1 receptor) of the same molecule?
The pKi was 9.19.

What about the pKi [1] of the same molecule?
The pKi was 9.00.

And the pKi [2]?
The pKi was 8.60.

What does the source list for `CN(C)CC1C[C@H]2c3ccccc3Cc3ccccc3[C@H]2O1` (stereo partly specified)?
pKi (Histamine H1 receptor): 7.57; pKi [1]: 6.78; pKi [2]: 6.99

Which results are given for `CN(C)CC1C[C@@H]2c3ccccc3Sc3ccccc3[C@H]2O1` (stereo partly specified)?
pKi (Histamine H1 receptor): 8.37; pKi [1]: 7.61; pKi [2]: 7.51

With `CN(C)CC1C[C@H]2c3ccccc3Oc3ccccc3[C@H]2O1` (stereo partly specified) as the molecule, how does the pKi (Histamine H1 receptor) read?
The pKi was 7.49.

And the pKi [1]?
Its pKi is 6.74.

What about the pKi [2] of the same molecule?
Its pKi is 7.03.

With `Clc1cccc(N2CCN(CC3C[C@@H]4c5ccccc5Cc5ccccc5[C@H]4O3)CC2)c1` (stereo partly specified) as the molecule, how does the pKi (Histamine H1 receptor) read?
Its pKi is 6.33.

And the pKi [1]?
Its pKi is 6.97.

What about the pKi [2] of the same molecule?
The pKi was 7.25.

How did the pKi (Histamine H1 receptor) turn out when `OCCN1CCN(CC2C[C@@H]3c4ccccc4Cc4ccccc4[C@H]3O2)CC1` (stereo partly specified) was run?
The pKi was 8.43.

And the pKi [1]?
Its pKi is 6.77.

What about the pKi [2] of the same molecule?
Its pKi is 7.06.

How did the pKi (Histamine H1 receptor) turn out when `CN(C)CC1C[C@@H]2c3ccccc3Oc3ccccc3[C@H]2O1` (stereo partly specified) was run?
Its pKi is 7.85.

What about the pKi [1] of the same molecule?
Its pKi is 7.51.

And the pKi [2]?
Its pKi is 7.43.

What does the source list for `CN(C)CC1C[C@@H]2c3ccccc3COc3ccccc3[C@H]2O1` (stereo partly specified)?
pKi (Histamine H1 receptor): 7.69; pKi [1]: 6.91; pKi [2]: 5.97

How did the pKi (Histamine H1 receptor) turn out when `CN(C)CC1C[C@@H]2c3ccccc3N(C)c3ccccc3[C@H]2O1` (stereo partly specified) was run?
Its pKi is 8.22.

What about the pKi [1] of the same molecule?
The pKi was 7.89.

What about the pKi [2] of the same molecule?
Its pKi is 7.09.

What does the source list for `O=C(c1ccc(F)cc1)C1CCN(CC2C[C@@H]3c4ccccc4Cc4ccccc4[C@H]3O2)CC1` (stereo partly specified)?
pKi (Histamine H1 receptor): 8.72; pKi [1]: 7.77; pKi [2]: 6.36

How did the pKi (Histamine H1 receptor) turn out when `CN(C)CC1C[C@@H]2c3ccccc3Cc3ccccc3[C@H]2O1` (stereo partly specified) was run?
The pKi was 9.15.

And the pKi [1]?
Its pKi is 8.17.

And the pKi [2]?
Its pKi is 7.66.

With `CN(C)CC1C[C@@H]2c3ccccc3OCc3ccccc3[C@H]2O1` (stereo partly specified) as the molecule, how does the pKi (Histamine H1 receptor) read?
The pKi was 8.02.

What about the pKi [1] of the same molecule?
The pKi was 7.49.

And the pKi [2]?
The pKi was 7.04.

Which results are given for `CN(C)C[C@@H]1C[C@@H]2c3ccccc3Cc3ccccc3[C@H]2O1`?
ED50 (Rattus norvegicus): 0.06 mg/kg; pKi (Histamine H1 receptor): 9.20; pKi [1]: 8.49; pKi [2]: 7.71

What does the source list for `c1ccc2c(c1)Cc1ccccc1[C@H]1OC(CN3CCOCC3)C[C@H]21` (stereo partly specified)?
pKi (Histamine H1 receptor): 8.63; pKi [1]: 7.57; pKi [2]: 6.36

How did the ED50 (Rattus norvegicus) turn out when `CN(C)C[C@@H]1C[C@H]2c3ccccc3Cc3ccccc3[C@@H]2O1` was run?
Its ED50 is 1.26 mg/kg.

And the pKi (Histamine H1 receptor)?
The pKi was 8.43.

And the pKi [1]?
The pKi was 7.55.

What about the pKi [2] of the same molecule?
Its pKi is 6.98.

`CN1CCN(CC2C[C@@H]3c4ccccc4Sc4ccccc4[C@H]3O2)CC1` (stereo partly specified) was tested. Which pKi (Histamine H1 receptor) did it give?
The pKi was 8.92.

What about the pKi [1] of the same molecule?
The pKi was 6.92.

And the pKi [2]?
The pKi was 7.76.

How did the pKi (Histamine H1 receptor) turn out when `c1ccc(C2CCN(CC3C[C@@H]4c5ccccc5Sc5ccccc5[C@H]4O3)CC2)cc1` (stereo partly specified) was run?
The pKi was 7.33.

And the pKi [1]?
Its pKi is 6.62.

What about the pKi [2] of the same molecule?
Its pKi is 7.16.
